Reference: US20240197700A1, “Methods and Compositions for Treating Lysosomal Storage Disorders” (Sanford Health, priority 2021, published 2024)
“Also recorded” adds a separate entry of the source.

Tests used:
TFEB target genes = assay: Comparative transcriptomic analysis (RNA sequencing, DEGs) in wild type MEFs; assay type: cell-based, mouse; conditions: 40 nM, dosed DIV3, RNA isolation DIV5
Procedure: Comparative transcriptomic analysis of differentially expressed genes in AF38469 treated and vehicle treated wild type mouse embryonic fibroblasts. Wild type mouse embryonic fibroblasts were treated with vehicle or AF38469 (40 nM). Cells were plated on in vitro day 0, and cells were dosed with drug-containing media on DIV3, collection and RNA isolation occurred on DIV5. RNA sequencing and differentially expressed gene (DEG) analysis was performed with Novogene. DEGs were compared to lists of lysosomal genes and genes under TFEB regulation.

Cln2^R207X mice = assay: Tremor index score on force plate actimeter in Cln2^R207X mice; assay type: in vivo, mouse; conditions: for tremor index score: 10 weeks of age
Procedure: Specific experimental details are included in figure legends. In general, after collection and preparation, MEFs and PNCs were dosed with vehicle or AF38469 (40 nM, 400 nM. or 4 μM) on DIV3 and DIV5. On DIV7, cells were treated with the following dyes: Hoechst 33342 (1:1000 dilution), LysoTrackerT™ Red DND-99 (1:10,000 dilution), fixed, and imaged. Mice were given vehicle or AF38469 (78.125 μg/ml, 3.125 μg/ml, 0.3125 μg/ml or 0.03125 μg/ml equating approximately to 250 μg/mouse/day, 10 μg/mouse/day, 1 μg/mouse/day, and […], respectively, given a mouse's daily water intake of approximately 3.2 ml per day) in drinking water beginning at wean. Body weight was measured bi-weekly, and a force actimeter test was performed on Cln2^R207X mice at 10 weeks of age. Body weight was measured every month for Cln3^Δex7/8 mice. At 11 and 16 weeks of age, respectively, Cln2^R207X and Cln3^Δex7/8 mice along with age matched wild type control mice were CO2 euthanized and intracardially perfused with PBS. Brains were collected and placed on a 1 mm sagittal brain block. Brains were sliced at the midline and 3 mm right of the midline. One hemisphere was fixed in 4% PFA and sectioned at 50 microns on a vibratome. Immunohistochemistry was performed on free-floating sections. For mitochondrial ATP synthase subunit C (SubC), glial fibrillary acidic protein (GFAP), and cluster of differentiation 68 (CD68) immunolabeling, primary antibodies included anti-SubC (Abcam, ab181243; 1:1000), anti-GFAP (Dako, Z0334; 1:5000), anti-CD68 (AbD Serotec, MCA1957; 1:2000), and secondary antibodies included anti-rabbit biotinylated (Vector Labs, BA-1000 1:1000) and anti-rat (Vector Labs, BA-9400 1:1000). Coverslips were mounted on slides using antifade-mounting media and were stored in the dark before imaging. Sections were imaged and analyzed using an Aperio Digital Pathology Slide Scanner (AT2) and associated software. Images were extracted from S1BF of the somatosensory cortex and the VPM/VPL of the thalamus, with multiple images taken of multiple tissues from each animal.
Short-term chronic treatment with AF38469 reduced tremor phenotype in Cln2^R207X mice. Beginning at wean, wild type and Cln2^R207X mice were treated with vehicle (0.2408% DMSO) or AF38469 (0.03125 μg/ml, 0.3125 μg/ml, 3.125 μg/ml, 78.125 μg/ml) continuously through the drinking water. At 10 weeks of age, wild type and Cln2^R207X mice were evaluated on the force plate actimeter. Evaluation of tremors with the force plate actimeter software produces a tremor index score based on the tremor frequency 5-10 Hz (A), 10-15 Hz (B), 15-20 Hz (C) and 20-25 Hz (D). Data was analyzed with Graphpad. Two-way ANOVA. Mean±S.E.M. Dunnett's multiple comparisons test. *p<0.05, **p<0.01, ***p<0.001, ****p<0.0001. […]

Cathepsin D = Cathepsin D enzyme in MEF lysates; assay type: cell-based, mouse
Procedure: Since LM11A-31 stimulates the nuclear translocation of transcription factors responsible for lysosome biogenesis, we asked whether LM11A-31 increases the overall activity levels of lysosomalenzymes in cellulo. […] Wild type (WT) and mutant cells were treated with vehicle or LM11A-31 (100 nM). Cells were plated on day 0 and dosed with drug-containing media on DIV3 and DIV5. Cells were lysed, and protein quantification and enzyme activity assay were performed on DIV7. Data was analyzed with GraphPad Prism™. Two-way ANOVA. Mean±S.E.M. Tukey's multiple comparisons test. *p<0.05, **p<0.01, ***p<0.001, ****p<0.0001. […] Palmitoyl-protein thioesterase 1 (PPT1) is the lysosomal enzyme mutated in CLN1 disease and removes thioester-linked fatty acyl groups from modified cysteines of substrate proteins. Tripeptidyl peptidase 1 (TPP1) is the lysosomal enzyme mutated in CLN2 disease and has broad substrate specificity against various proteins degraded in the lysosome after cleavage. Mutations in the CTSD gene, encoding cathepsin d, a lysosomal protease that is involved in the recycling and degradation, is a known cause of Cln10 disease.

[1] = Stability of semaglutide in solution (vehicle formulation); assay type: physicochemical; conditions: 4° C.
Procedure: In in vitro models, semaglutide (Creative Peptides, Catalog #910463-68-2) was tested in concentrations of 10 nM, 100 nM, and 1 μM in 1% DMSO. Vehicle treated cells were dosed with 1% DMSO. In in vivo models, semaglutide (Creative Peptides, Catalog #910463-68-2) was tested in concentrations of 2.571 μg/mouse and 25.71 μg/mouse prepared using the vehicle formulation for a total injection volume of 0.2 ml. Compound was stable in solution for 56 days at 4° C. Semaglutide was utilized at 98% HPLC purity.

With `Cc1cccc(NC(=O)c2ccc(C(F)(F)F)cc2C(=O)O)n1` [AF38469, 2-((6-methylpyridin-2-yl)carbamoyl)-5-(trifluoromethyl)benzoic acid] the “all lysosomal differentially expressed genes or lysosomal genes not regulated by TFEB” value (TFEB target genes) was “no distinct pattern of up or down regulation”, the “expression of TFEB target genes” value (TFEB target genes) was “stimulated increased expression; also recorded: stimulates; also recorded: distinct pattern of upregulation” and the tremor index score (Cln2^R207X mice; 5-10 Hz, vs vehicle Cln2^R207X) was “had no impact”. The tremor index score (Cln2^R207X mice; 10-15 Hz, 0.3125 μg/ml) was “significantly reduced”, the tremor index score (Cln2^R207X mice; 15-20 Hz and 20-25 Hz, 0.03125 μg/ml, 0.3125 μg/ml, 3.125 μg/ml) was “significantly reduced” and the tremor index scores (Cln2^R207X mice; lower concentrations, summary statement) was “significantly reduce”.

With `CC[C@H](C)[C@H](N)C(=O)NCCN1CCOCC1` [LM11A-31, N-[2-(morpholin-4-yl)ethyl]-L-isoleucinamide] the “levels of Cathepsin D” value (Cathepsin D; LM11A-31 100 nM, Cln2^R207X and Cln3^Δex7/8 MEFs, DIV7) was “significantly decreased” and the “overall levels of activity for Cathepsin D enzyme in cell lysates” value (Cathepsin D; LM11A-31, overall statement (FIG. 15B)) was “increased the overall levels of activity”.

semaglutide gave a stable in solution [1] of 56 days.
